Laboratory results from patent publication US12077503B2, “Substituted cyclic amides and their use as herbicides” (FMC CORPORATION, priority 2015, dated 2024).
Where two headings read alike, the source gives them in different places.

How the values were obtained:
Format in all cases: in vivo
Kochia (Kochia scoparia) [1] = assay: Test A postemergence; conditions: Bassia scoparia, post-emergence, 240 h, Postemergence; for pest or weed control at 125 g/ha: 125 g ai/ha; for pest or weed control at 500 g/ha: 500 g ai/ha, visual injury, 0 to 100 scale (0 no effect, 100 complete control), approx. 10 d
Outline: (§1)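 Visual injury, scored on a 0–100 scale relative to untreated controls, was recorded about 10 d after application. Treatments were a preemergence soil spray over planted seeds or a postemergence spray on plants at the one- to two-leaf stage, 2 to 10 cm tall, all in loam soil–sand blend in the greenhouse.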

[2] = test system: Galium (catchweed bedstraw, Galium aparine); assay: Test A postemergence; conditions: Galium, post-emergence, 240 h, Postemergence; for pest or weed control at 125 g/ha: 125 g ai/ha; for pest or weed control at 500 g/ha: 500 g ai/ha, visual injury, 0 to 100 scale (0 no effect, 100 complete control), approx. 10 d
Outline: as §1

[3] = test system: ragweed (common ragweed, Ambrosia elatior); assay: Test A postemergence; conditions: Ambrosia artemisiifolia, post-emergence, 240 h, Postemergence; for pest or weed control at 125 g/ha: 125 g ai/ha; for pest or weed control at 500 g/ha: 500 g ai/ha, visual injury, 0 to 100 scale (0 no effect, 100 complete control), approx. 10 d
Outline: as §1

corn (Zea mays) = assay: Test A postemergence; conditions: Zea mays, post-emergence, 240 h, Postemergence; for Corn plant response rating (crop injury, 0 = no effect, 100 = complete kill) at 500 g/ha: 500 g ai/ha, visual injury, 0 to 100 scale (0 no effect, 100 complete control), approx. 10 d
Outline: as §1

[4] = test system: wheat (Triticum aestivum); assay: Test A postemergence; conditions: Triticum aestivum, post-emergence, 240 h, Postemergence; for plant injury at 125 g/ha: 125 g ai/ha; for plant injury at 500 g/ha: 500 g ai/ha, visual injury, 0 to 100 scale (0 no effect, 100 complete control), approx. 10 d
Outline: as §1

[5] = test system: giant foxtail (Setaria faberii); assay: Test A postemergence; conditions: Setaria faberi, post-emergence, 240 h, Postemergence; for pest or weed control at 125 g/ha: 125 g ai/ha; for pest or weed control at 500 g/ha: 500 g ai/ha, visual injury, 0 to 100 scale (0 no effect, 100 complete control), approx. 10 d
Outline: as §1

[6] = test system: ryegrass, Italian (Italian ryegrass, Lolium multiflorum); assay: Test A postemergence; conditions: Lolium multiflorum, post-emergence, 240 h, Postemergence; for pest or weed control at 125 g/ha: 125 g ai/ha; for pest or weed control at 500 g/ha: 500 g ai/ha, visual injury, 0 to 100 scale (0 no effect, 100 complete control), approx. 10 d
Outline: as §1

[7] = test system: pigweed (Amaranthus retroflexus); assay: Test A postemergence; conditions: Amaranthus retroflexus, post-emergence, 240 h, Postemergence; for pest or weed control at 125 g/ha: 125 g ai/ha; for pest or weed control at 500 g/ha: 500 g ai/ha, visual injury, 0 to 100 scale (0 no effect, 100 complete control), approx. 10 d
Outline: as §1

[8] = test system: barnyardgrass (Echinochloa crus-galli); assay: Test A postemergence; conditions: Echinochloa crus-galli, post-emergence, 240 h, Postemergence; for pest or weed control at 125 g/ha: 125 g ai/ha; for pest or weed control at 500 g/ha: 500 g ai/ha, visual injury, 0 to 100 scale (0 no effect, 100 complete control), approx. 10 d
Outline: as §1

Kochia (Kochia scoparia) [9] = assay: Test A preemergence; conditions: Bassia scoparia, pre-emergence, 240 h, 0 to 100 scale (0 no effect, 100 complete control), read-out: Plant response rating, Kochia; for pest or weed control at 500 g/ha: 500 g ai/ha, preemergence; for pest or weed control at 125 g/ha: Preemergence, 125 g ai/ha
Outline: as §1

[10] = test system: ragweed (common ragweed, Ambrosia elatior); assay: Test A preemergence; conditions: Ambrosia artemisiifolia, pre-emergence, 240 h, 0 to 100 scale (0 no effect, 100 complete control), read-out: Plant response rating, Ragweed; for pest or weed control at 500 g/ha: 500 g ai/ha, preemergence; for pest or weed control at 125 g/ha: Preemergence, 125 g ai/ha
Outline: as §1

[11] = test system: giant foxtail (Setaria faberii); assay: Test A preemergence; conditions: Setaria faberi, pre-emergence, 240 h, 0 to 100 scale (0 no effect, 100 complete control), read-out: Plant response rating, Foxtail, Giant; for pest or weed control at 500 g/ha: 500 g ai/ha, preemergence; for pest or weed control at 125 g/ha: Preemergence, 125 g ai/ha
Outline: as §1

[12] = test system: ryegrass, Italian (Italian ryegrass, Lolium multiflorum); assay: Test A preemergence; conditions: Lolium multiflorum, pre-emergence, 240 h, 0 to 100 scale (0 no effect, 100 complete control), read-out: Plant response rating, Ryegrass, Italian; for pest or weed control at 500 g/ha: 500 g ai/ha, preemergence; for pest or weed control at 125 g/ha: Preemergence, 125 g ai/ha
Outline: as §1

[13] = test system: pigweed (Amaranthus retroflexus); assay: Test A preemergence; conditions: Amaranthus retroflexus, pre-emergence, 240 h, 0 to 100 scale (0 no effect, 100 complete control), read-out: Plant response rating, Pigweed; for pest or weed control at 500 g/ha: 500 g ai/ha, preemergence; for pest or weed control at 125 g/ha: Preemergence, 125 g ai/ha
[14] = test system: barnyardgrass (Echinochloa crus-galli); assay: Test A preemergence; conditions: Echinochloa crus-galli, pre-emergence, 240 h, 0 to 100 scale (0 no effect, 100 complete control), read-out: Plant response rating, Barnyardgrass; for pest or weed control at 500 g/ha: 500 g ai/ha, preemergence; for pest or weed control at 125 g/ha: Preemergence, 125 g ai/ha
Outline: as §1

[15] = read-out: Plant response rating, Kochia
[16] = read-out: Plant response rating, Galium
[17] = read-out: Plant response rating, Ragweed
[18] = read-out: Plant response rating, Wheat
[19] = read-out: Plant response rating, Foxtail, Giant
[20] = read-out: Plant response rating, Ryegrass, Italian
[21] = read-out: Plant response rating, Pigweed
[22] = read-out: Plant response rating, Barnyardgrass

SMILES	pest or weed control at 500 g/ha (Kochia (Kochia scoparia) [1]; [15]) [%]	pest or weed control at 500 g/ha [2, 16] [%]	pest or weed control at 500 g/ha [3, 17] [%]	Corn plant response rating (crop injury, 0 = no effect, 100 = complete kill) at 500 g/ha (corn (Zea mays)) [%]	plant injury at 500 g/ha [4, 18] [%]	pest or weed control at 500 g/ha [5, 19] [%]	pest or weed control at 500 g/ha [6, 20] [%]	pest or weed control at 500 g/ha [7, 21] [%]	pest or weed control at 500 g/ha [8, 22] [%]	pest or weed control at 500 g/ha (Kochia (Kochia scoparia) [9]) [%]	pest or weed control at 125 g/ha (Kochia (Kochia scoparia) [9]) [%]	pest or weed control at 500 g/ha [10] [%]	pest or weed control at 125 g/ha [10] [%]	pest or weed control at 500 g/ha [11] [%]	pest or weed control at 125 g/ha [11] [%]	pest or weed control at 500 g/ha [12] [%]	pest or weed control at 125 g/ha [12] [%]	pest or weed control at 500 g/ha [13] [%]	pest or weed control at 125 g/ha [13] [%]	pest or weed control at 500 g/ha [14] [%]	other results
O=C1NC[C@H](c2nccc(C(F)(F)F)n2)[C@H]1C(=O)Nc1cccc(F)c1F [Compound 1392]	0	0	0	20	30	30	0	0	40	0	0	0	0	60	0	0	0	0	0	60	pest or weed control at 125 g/ha (Kochia (Kochia scoparia) [1]; visual injury after approx. 10 d, 0 to 100 scale, 0 no effect, 100 complete control, read-out: Plant response rating, Kochia): 0%; pest or weed control at 125 g/ha ([2]; visual injury after approx. 10 d, 0 to 100 scale, 0 no effect, 100 complete control, read-out: Plant response rating, Galium): 0%; pest or weed control at 125 g/ha ([3]; visual injury after approx. 10 d, 0 to 100 scale, 0 no effect, 100 complete control, read-out: Plant response rating, Ragweed): 0%; Corn plant response rating (crop injury, 0 = no effect, 100 = complete kill) at 125 g/ha (corn (Zea mays); 125 g ai/ha, visual injury after approx. 10 d, 0 to 100 scale, 0 no effect, 100 complete control): 0%; plant injury at 125 g/ha ([4]; visual injury after approx. 10 d, 0 to 100 scale, 0 no effect, 100 complete control, read-out: Plant response rating, Wheat): 0%; pest or weed control at 125 g/ha ([5]; visual injury after approx. 10 d, 0 to 100 scale, 0 no effect, 100 complete control, read-out: Plant response rating, Foxtail, Giant): 0%; pest or weed control at 125 g/ha ([6]; visual injury after approx. 10 d, 0 to 100 scale, 0 no effect, 100 complete control, read-out: Plant response rating, Ryegrass, Italian): 0%; pest or weed control at 125 g/ha ([7]; visual injury after approx. 10 d, 0 to 100 scale, 0 no effect, 100 complete control, read-out: Plant response rating, Pigweed): 0%; pest or weed control at 125 g/ha ([8]; visual injury after approx. 10 d, 0 to 100 scale, 0 no effect, 100 complete control, read-out: Plant response rating, Barnyardgrass): 0%; pest or weed control at 125 g/ha [14]: 0%
Cc1c(F)ccc([C@H]2CNC(=O)[C@@H]2C(=O)Nc2cccc(F)c2F)c1F [Compound 1327]	30	50	20	0	0	70	40	0	90	90	100	0	0	90	70	20	20	30	0	90	pest or weed control at 125 g/ha (Kochia (Kochia scoparia) [1]; visual rating about 10 d after treatment, read-out: Kochia plant response rating (0 to 100 scale)): 0%; pest or weed control at 125 g/ha ([2]; visual rating about 10 d after treatment, read-out: Galium plant response rating (0 to 100 scale)): 30%; pest or weed control at 125 g/ha ([3]; visual rating about 10 d after treatment, read-out: Ragweed plant response rating (0 to 100 scale)): 0%; plant injury at 125 g/ha (corn (Zea mays); 125 g ai/ha, visual rating about 10 d after treatment, read-out: Corn plant response rating (0 to 100 scale)): 0%; plant injury at 125 g/ha ([4]; visual rating about 10 d after treatment, read-out: Wheat plant response rating (0 to 100 scale)): 0%; pest or weed control at 125 g/ha ([5]; visual rating about 10 d after treatment, read-out: Foxtail, Giant plant response rating (0 to 100 scale)): 20%; pest or weed control at 125 g/ha ([6]; visual rating about 10 d after treatment, read-out: Ryegrass, Italian plant response rating (0 to 100 scale)): 0%; pest or weed control at 125 g/ha ([7]; visual rating about 10 d after treatment, read-out: Pigweed plant response rating (0 to 100 scale)): 0%; pest or weed control at 125 g/ha ([8]; visual rating about 10 d after treatment, read-out: Barnyardgrass plant response rating (0 to 100 scale, 0 no effect, 100 complete control)): 90%; pest or weed control at 125 g/ha [14]: 90%
